In brackets after ≈: the same amount, converted by molar mass.
Experiments:
Mus musculus [1] = assay: In vivo antitumor activity against B16 melanoma cells in mice; format: functional
P388 = assay: In vitro cytotoxicity against murine P388 lymphocytic leukemia cells; format: functional, cell-based; settings: Mus musculus
[2] = biological target: Tubulin alpha chain (Sus scrofa) (UniProt P02550); assay: Tested for 50% inhibition of the rate of microtubule disassembly to that paclitaxel; format: functional
Tubulin alpha chain (Sus scrofa), sequence (P02550 whole entry, looked up): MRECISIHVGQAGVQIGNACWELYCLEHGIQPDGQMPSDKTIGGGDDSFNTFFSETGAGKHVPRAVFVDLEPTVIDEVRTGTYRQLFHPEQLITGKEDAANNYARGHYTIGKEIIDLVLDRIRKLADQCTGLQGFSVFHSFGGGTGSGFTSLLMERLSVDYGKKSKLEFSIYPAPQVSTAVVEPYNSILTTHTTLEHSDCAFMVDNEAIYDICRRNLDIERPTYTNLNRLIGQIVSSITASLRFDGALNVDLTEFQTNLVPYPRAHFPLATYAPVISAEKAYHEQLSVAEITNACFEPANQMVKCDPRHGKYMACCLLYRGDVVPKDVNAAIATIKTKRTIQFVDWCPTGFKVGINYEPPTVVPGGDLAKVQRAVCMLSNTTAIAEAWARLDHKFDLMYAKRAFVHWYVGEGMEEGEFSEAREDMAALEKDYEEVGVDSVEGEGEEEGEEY

Mus musculus [3] = species: Mus musculus; assay: Ratio of median tumor weight of the treated mice /control mice; format: functional
Mus musculus [4] = species: Mus musculus; assay: Ratio of median tumor weight of the treated mice /control mice; non evaluable: immediate death after injection (insoluble compound); format: ADME, organism-based; settings: in vivo
Mus musculus [5] = species: Mus musculus; assay: Ratio of median tumor weight of the treated mice /control mice; non evaluable: delayed toxicity; format: organism-based; settings: in vivo

Row | Compound | Max tolerated dose (Mus musculus [1]) | IC50 (P388) | IC50 ratio [2] | T/C (Mus musculus [3]) | T/C (Mus musculus [4]) | T/C (Mus musculus [5])
1 | C#Cc1ccc([C@H](NC(=O)OC(C)(C)C)[C@@H](O)C(=O)O[C@H]2C[C@@]3(O)[C@@H](OC(=O)c4ccccc4)[C@@H]4[C@]5(OC(C)=O)CO[C@@H]5C[C@H](O)[C@@]4(C)C(=O)[C@H](O)C(=C2C)C3(C)C)cc1 | 21.7 mg/kg/day | 0.085 µg/mL (≈ 0.102 µM) | 0.6 | 15% |  | 
2 | C=C(C)c1ccc([C@H](NC(=O)OC(C)(C)C)[C@@H](O)C(=O)O[C@H]2C[C@@]3(O)[C@@H](OC(=O)c4ccccc4)[C@@H]4[C@]5(OC(C)=O)CO[C@@H]5C[C@H](O)[C@@]4(C)C(=O)[C@H](O)C(=C2C)C3(C)C)cc1 | 20 mg/kg/day | 0.35 µg/mL (≈ 0.413 µM) | 1.8 | 105% |  | 
3 | C=Cc1ccc([C@H](NC(=O)OC(C)(C)C)[C@@H](O)C(=O)O[C@H]2C[C@@]3(O)[C@@H](OC(=O)c4ccccc4)[C@@H]4[C@]5(OC(C)=O)CO[C@@H]5C[C@H](O)[C@@]4(C)C(=O)[C@H](O)C(=C2C)C3(C)C)cc1 | 38.3 mg/kg/day | 0.06 µg/mL (≈ 0.0719 µM) | 0.7 | 19% |  | 
4 | CC(=O)O[C@@]12CO[C@@H]1C[C@H](O)[C@@]1(C)C(=O)[C@H](O)C3=C(C)[C@@H](OC(=O)[C@H](O)[C@@H](NC(=O)OC(C)(C)C)c4ccccc4)C[C@@](O)([C@@H](OC(=O)c4ccccc4)[C@H]21)C3(C)C.O.O.O [DOCETAXEL] | 13.4 mg/kg/day | 0.04 µg/mL | 0.64 | 0% |  | 
5 | CC(=O)O[C@@]12CO[C@@H]1C[C@H](O)[C@@]1(C)C(=O)[C@H](O)C3=C(C)[C@@H](OC(=O)[C@H](O)[C@@H](NC(=O)OC(C)(C)C)c4ccc(C)cc4)C[C@@](O)([C@@H](OC(=O)c4ccccc4)[C@H]21)C3(C)C | 15.5 mg/kg/day | 0.04 µg/mL (≈ 0.0487 µM) | 1.3 | 8% |  | 
6 | CC(=O)O[C@@]12CO[C@@H]1C[C@H](O)[C@@]1(C)C(=O)[C@H](O)C3=C(C)[C@@H](OC(=O)[C@H](O)[C@@H](NC(=O)OC(C)(C)C)c4ccc(C=O)cc4)C[C@@](O)([C@@H](OC(=O)c4ccccc4)[C@H]21)C3(C)C | <13.4 mg/kg/day | 0.13 µg/mL (≈ 0.156 µM) | 0.75 |  | non evaluable: immediate death after injection (insoluble compound) | 
7 | CC(=O)O[C@@]12CO[C@@H]1C[C@H](O)[C@@]1(C)C(=O)[C@H](O)C3=C(C)[C@@H](OC(=O)[C@H](O)[C@@H](NC(=O)OC(C)(C)C)c4ccc(C(C)=O)cc4)C[C@@](O)([C@@H](OC(=O)c4ccccc4)[C@H]21)C3(C)C | 35.3 mg/kg/day | 0.19 µg/mL (≈ 0.224 µM) | 0.95 | 10% |  | 
8 | CC(=O)O[C@@]12CO[C@@H]1C[C@H](O)[C@@]1(C)C(=O)[C@H](O)C3=C(C)[C@@H](OC(=O)[C@H](O)[C@@H](NC(=O)OC(C)(C)C)c4ccc(-c5ccccc5)cc4)C[C@@](O)([C@@H](OC(=O)c4ccccc4)[C@H]21)C3(C)C | 35 mg/kg/day | 0.65 µg/mL (≈ 0.735 µM) | 2 | 40% |  | 
9 | CC(=O)O[C@@]12CO[C@@H]1C[C@H](O)[C@@]1(C)C(=O)[C@H](O)C3=C(C)[C@@H](OC(=O)[C@H](O)[C@@H](NC(=O)OC(C)(C)C)c4ccc(C(=O)c5ccccc5)cc4)C[C@@](O)([C@@H](OC(=O)c4ccccc4)[C@H]21)C3(C)C | 20 mg/kg/day | > 1 µg/mL | 20 | 95% |  | 
10 | CC(=O)O[C@@]12CO[C@@H]1C[C@H](O)[C@@]1(C)C(=O)[C@H](O)C3=C(C)[C@@H](OC(=O)[C@H](O)[C@@H](NC(=O)OC(C)(C)C)c4ccc(CO)cc4)C[C@@](O)([C@@H](OC(=O)c4ccccc4)[C@H]21)C3(C)C | <4.8 mg/kg/day | 0.06 µg/mL (≈ 0.0716 µM) | 0.4 |  |  | non evaluable: delayed toxicity

Reference: ChEMBL document CHEMBL1128875, “Synthesis and biological activity of Para-substituted 3-phenyl docetaxel analogs” (Bioorg Med Chem Lett, 1995)
